Legend:
[1] = biological target: T1, Heat shock protein HSP 90-beta (Homo sapiens, UniProt P08238); test: Thermofluor Assay
From the text: Thermofluor Assay

[2] = biological target: T1, Heat shock protein HSP 90-beta; test: ITC
From the text: ITC

T1 sequence (P08238 whole entry): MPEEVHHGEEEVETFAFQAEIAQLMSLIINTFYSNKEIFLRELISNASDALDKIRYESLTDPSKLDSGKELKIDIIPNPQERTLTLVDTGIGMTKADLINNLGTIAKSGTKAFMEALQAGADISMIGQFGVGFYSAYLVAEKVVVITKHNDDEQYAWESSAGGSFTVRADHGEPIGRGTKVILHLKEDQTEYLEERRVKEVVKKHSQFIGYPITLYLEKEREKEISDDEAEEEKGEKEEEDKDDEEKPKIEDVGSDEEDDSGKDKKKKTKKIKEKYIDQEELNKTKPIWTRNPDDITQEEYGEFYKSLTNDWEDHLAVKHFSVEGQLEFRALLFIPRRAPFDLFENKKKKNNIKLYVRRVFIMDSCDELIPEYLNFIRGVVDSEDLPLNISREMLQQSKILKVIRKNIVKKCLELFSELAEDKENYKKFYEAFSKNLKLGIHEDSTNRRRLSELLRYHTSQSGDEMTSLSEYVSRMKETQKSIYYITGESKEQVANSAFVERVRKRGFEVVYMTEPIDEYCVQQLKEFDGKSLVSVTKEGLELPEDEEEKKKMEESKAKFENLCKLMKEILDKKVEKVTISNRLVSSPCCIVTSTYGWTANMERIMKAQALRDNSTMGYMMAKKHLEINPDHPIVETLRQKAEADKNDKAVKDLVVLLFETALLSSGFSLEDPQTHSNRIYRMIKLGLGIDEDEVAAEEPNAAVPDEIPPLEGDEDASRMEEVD

Structure (SMILES)	Kd [1]	Kd [2]
O=C(c1cccc(O)c1)c1ccc(O)cc1O [Polyhydroxy benzophenone, 12]	28.9 µM	11.5 µM
Nc1nc(N)nc(-c2ccccc2Cl)n1 [hsp90_179]	20.4 µM	7.45 µM
COC(=O)c1cc(-n2c(=O)[nH]c3cc(C(F)(F)F)cc(Cl)c32)c(O)cc1OC [hsp90_13]	> 100 µM	–
COc1ccc(-c2cc(-c3ccc(Cl)cc3Cl)nc(N)n2)c(OC)c1 [hsp90_84]	265 µM	–
Cc1cc(CNC(=O)N2CCN(S(C)(=O)=O)C2=O)nc(N)n1 [hsp90_120]	> 100 µM	–
Cc1cc(-n2nc(C(=O)NCC3COC(C)(C)O3)cc2C)nc(N)n1 (centres undefined) [hsp90_95]	91 µM	64 µM
Cc1cc(-c2ccc([N+](=O)[O-])cc2Cl)nc(N)n1 [hsp90_73]	4.53 µM	0.393 µM
Nc1nc(Cl)c(/C=N/O)c(-c2ccc(Cl)cc2Cl)n1 [hsp90_87]	2.25 µM	–
COc1cc(-c2cc(-n3c(=O)[nH]c4ccccc43)c(O)cc2O)cc(OC)c1OC [hsp90_24]	0.993 µM	10.3 µM
Cn1c2c([n+](C)c1CCl)C(=O)c1ccccc1C2=O [hsp90_128]	> 100 µM	–
CCOC(=O)CO/N=C/c1c(Cl)nc(N)nc1-c1ccc(Cl)cc1Cl [hsp90_91]	11.2 µM	–
O=c1[nH]c2cc(CNS(=O)(=O)c3ccccc3O)ccc2n1-c1cc(Cl)c(O)cc1O [hsp90_43]	0.172 µM	0.0107 µM
CC(=O)Oc1ccc2c(=O)c(Cc3ccccc3)c(C)oc2c1OC(C)=O [hsp90_174]	> 100 µM	–
CC(C)c1ccc(S(=O)(=O)NCc2ccc3c(c2)[nH]c(=O)n3-c2cc(Cl)c(O)cc2O)cc1 [hsp90_38]	0.225 µM	0.115 µM
O=c1[nH]c2ccccc2n1-c1cc(-c2ccccc2O)c(O)cc1O [hsp90_10]	4.58 µM	6.58 µM
O=C(c1ccc(O)cc1)c1cc(Cl)ccc1O [hsp90_164]	7.51 µM	8.33 µM
O=c1[nH]c2ccccc2n1-c1cc(-c2cccnc2O)c(O)cc1O [hsp90_34]	94.8 µM	54 µM
O=C(CCl)NCc1cc(C(=O)c2ccc(OCCO)c(Cl)c2Cl)cc(Cl)c1O [hsp90_171]	> 100 µM	–
CC(=O)Oc1ccc([N+](=O)[O-])c2ccccc12 [hsp90_165]	> 100 µM	–
CC1c2cc(-n3c(=O)[nH]c4ccccc43)c(O)cc2OC1(C)C (centres undefined) [hsp90_35]	> 100 µM	–
O=c1[nH]c2cc(CNS(=O)(=O)c3cccnc3)ccc2n1-c1cc(Cl)c(O)cc1O [hsp90_44]	0.376 µM	0.0268 µM
COc1cccc(OC)c1-c1cc(C)nc(N)n1 [hsp90_70]	2.28 µM	1.48 µM
Nc1nc(-c2ccc(C(F)(F)F)cc2Cl)cc(-c2ccc(C(F)(F)F)cc2Cl)n1 [hsp90_77]	> 100 µM	–
O=C(c1ccc(O)cc1)c1ccc(O)cc1O [hsp90_176]	10.6 µM	3.11 µM
CCc1cc(-n2c(=O)[nH]c3ccccc32)c(O)cc1O [hsp90_40]	0.165 µM	0.069 µM
O=C(c1ccc(O)cc1O)c1ccc(O)c(O)c1O [Polyhydroxy benzophenone, 8]	> 100 µM	–
CCCc1cc(-n2c(=O)[nH]c3ccccc32)c(O)cc1O [hsp90_12]	0.123 µM	0.0686 µM
O=c1[nH]c2ccccc2n1-c1cc(-c2ccnc3ccccc23)c(O)cc1O [hsp90_23]	–	3.06 µM
CCCC(=O)c1cc(O)c(O)c(O)c1 [hsp90_151]	> 100 µM	–

From BindingDB's records for doi:10.7270/Q2VX0FC0 (D3R/Abbott, 2016)
